Experiments:
Assay type in all cases: in vivo
STZ mice = assay: Blood glucose in mouse pancreatic islet β-cell injury model (Example 1); settings: STZ ICR mice; single administration 0.02 g/kg per day by gavage, two weeks; 1 h after last administration
From the text: Effects of a Limonoid Compound, Metformin or a Combination Thereof on Blood Glucose in a Mouse Pancreatic Islet β-Cell Injury Model In this example, a mouse pancreatic islet β-cell injury model was established by modeling ICR mice with streptozotocin (STZ) (referred to the prior art literature: Li Nan et al., Protective effect of pine pollen on kidney damage in diabetic nephropathy mice, Science and Technology Review, 2014, 32 (4/5): 95-99), and used to complete the evaluation of hypoglycemic effect in animals (this model could simulate pancreatic islet β-cell damage state of type I and type II diabetics). […] Conditions of experimental feeding: ICR mice (20±2 g), aged 6 weeks, purchased from Zhejiang Academy of Medical Sciences, and subjected to experimental feeding after 7 days of preliminary feeding. […] The experimental feed was mouse growth-stable feed (GB […]), and the daily feeding and management of the animals were under the responsibility of the animal security department, which provided the animals with sufficient padding and fresh drinking water daily. Experimental grouping: 15 male mice were randomly selected as the normal control group. […] Gavage doses: the gavage dose was 0.02 g/kg per day for the limonin group, the gavage dose was 0.02 g/kg per day for the isolimonic acid group, the gavage dose was 0.02 g/kg per day for the limonin 17-β-D-glucopyranoside group, the gavage dose of metformin was 0.02 g/kg per day for the metformin group, limonin at a dose of 0.01 g/kg and metformin at a dose of 0.01 g/kg were simultaneously gavaged per day for the limonin/metformin combination group, isolimonic acid at a dose of 0.01 g/kg and metformin at a dose of 0.01 g/kg were simultaneously gavaged per day for the isolimonic acid/metformin combination group, limonin 17-β-D-glucopyranoside at a dose of 0.01 g/kg and metformin at a dose of 0.01 g/kg were simultaneously gavaged per day for the limonin 17-β-D-glucopyranoside/metformin combination group, isolimonic acid 17-β-D-glucopyranoside at a dose of 0.01 g/kg and metformin at a dose of 0.01 g/kg were simultaneously gavaged per day for the isolimonic acid 17-β-D-glucopyranoside/metformin combination group, the gavage volume was 10 mL/kg, and the normal group and the model group were administrated with 10 mL/kg of distilled water. […] SPSS 16.0 software was used for statistical analysis. The data were expressed as mean and standard deviation. The data before and after were analyzed by t-test, and P<0.05 was considered statistically significant.

db/db mice [1] = assay: Blood glucose and leptin in mouse model of type II diabetes (Example 2); settings: single administration 0.04 g/kg per day by gavage, two weeks; for Leptin: serum, Elisa; for Blood glucose value: 1 h after last administration
From the text: Effects of a Limonoid Compound, Metformin or a Combination Thereof on Blood Glucose and Leptin in a Mouse Model of Type II Diabetes In the present example, db/db mice (line name BKS.Cg-Dock7^m+/+ Lepr^db/Nju) were used to perform hypoglycemic efficacy evaluation test of animals (blood glucose level and leptin). […] Conditions for experimental feeding: as type II diabetes model mice, 6-week-old SPF-grade db/db mice were purchased from the Nanjing Model Biology Institute, and subjected to experimental feeding after 7 days of preliminary feeding. […] The experimental feed was mouse growth-stable feed (GB […]), and the daily feeding and management of the animals were under the responsibility of the animal security department, which provided the animals with sufficient padding and fresh drinking water daily. Experimental grouping: male db/db mice (20±2 g) were selected, and 18 male mice in each group were tested. […] Gavage doses: obacunone at a dose of 0.04 g/kg was gavaged per day for the obacunone group, isoobacunoic acid at a dose of 0.04 g/kg was gavaged per day for the isoobacunoic acid group, obacunone 17-β-D-glucopynoside at a dose of 0.04 g/kg was gavaged per day for the obacunone 17-β-D-glucopynoside group, metformin at a dose of 0.04 g/kg was gavaged per day for the metformin group, obacunone at a dose of 0.02 g/kg and metformin at a dose of 0.02 g/kg were simultaneously gavaged per day for the obacunone/metformin combination group, isoobacunoic acid at a dose of 0.02 g/kg and metformin at a dose of 0.02 g/kg were simultaneously gavaged per day for the isoobacunoic acid/metformin combination group, obacunone 17-β-D-glucopynoside at a dose of 0.02 g/kg and metformin at a dose of 0.02 g/kg were simultaneously gavaged per day for the obacunone 17-β-D-glucopynoside/metformin combination group, the gavage volume was 10 mL/kg, and the normal group and the model group were administrated with 10 mL/kg of distilled water. […] The data were expressed as mean and standard deviation. The data before and after were analyzed by t-test, and P<0.05 was considered statistically significant.

ICR mice = assay: Body weight, triglycerides and total cholesterol in obesity mouse model (Example 6); settings: high-fat feed ICR mice, single administration 0.1 g/kg per day by gavage, two weeks
From the text: Effects of a Limonoid Compound, Metformin or a Combination Thereof on Body Weight, Triglycerides, and Total Cholesterol in an Obesity Mouse Model
In this example, ICR mice were used to complete the experiment for evaluation of lipid lowering and weight loss in animals (body weight, serum cholesterol, and serum triglycerides).
In this example, the limonoid compound was nomilin, and a metformin single administration group, nomilin single administration group, and metformin/nomilin combination administration groups (dose A and B groups) were set, respectively.
Conditions of experimental feeding: ICR mice, purchased from the Animal Center of Zhejiang Academy of Medical Sciences, half male and half female, body weight (20±2 g), fed with basic feed provided by the Animal Center of Zhejiang Medical Academy. It should be noted that the conditions for raising the mice were as follows: the temperature was 23±1° C., the humidity was 55±10%, the lights were turned on between 7 am and 7 pm (the lights were turned off at other time), and the mice were allowed to access to water and feed freely. The daily feeding and management of the animals were under the responsibility of the animal security department, which provided the animals with sufficient padding and fresh drinking water daily.
The ICR mice were randomly divided into the normal group and the high-fat feed group, according to body weight. The normal group was fed with ordinary feed from the beginning to the end of the experiment.
Gavage dose: nomilin at a dose of 0.1 g/kg was gavaged per day for the nomilin group, metformin at a dose of 0.1 g/kg was gavaged per day for the metformin group, nomilin at a dose of 0.05 g/kg and metformin at a dose of 0.05 g/kg were simultaneously gavaged per day for the combination dose group A, nomilin at a dose of 0.1 g/kg and metformin at a dose of 0.1 g/kg were simultaneously gavaged per day for the combination dose group B, the gavage volume was 10 mL/kg, and the normal group and the model group were administrated with 10 mL/kg of distilled water. Two weeks later, the mice were weighed, blood sampled from orbital cavity, measured to determine serum total cholesterol and triglyceride levels, and the average values of each group were obtained. SPSS 16.0 software was used for statistical analysis. The data were expressed as mean and standard deviation. The data before and after were analyzed by t-test, and P<0.05 was considered statistically significant.

db/db mice [2] = assay: Blood glucose and insulin in mouse model of type II diabetes (Example 4); settings: single administration 0.2 g/kg per day by gavage, two weeks; for Insulin: serum, Elisa
From the text: Effects of a Limonoid Compound, Metformin or a Combination Thereof on Blood Glucose and Insulin in a Mouse Model of Type II Diabetes
In the present embodiment, the limonoid compound selected nomilin, deacetylnomilin, nomilin acid, deactylnomilin 17-β-D-glucopyranoside, and a nomilin single administration group, deacetylnomilin single administration group, nomilin acid single administered group, deactylnomilin 17-β-D-glucopyranoside single administration group, and combination thereof with metformin administration groups were set, respectively.
Conditions for experimental feeding: as type II diabetes model mice, 6-week-old SPF-grade db/db mice were purchased from the Nanjing Model Biology Institute, and subjected to experimental feeding after 7 days of preliminary feeding. It should be noted that the conditions for raising the mice were as follows: the temperature was 23±1° C., the humidity was 55±10%, the lights were turned on between 7 am and 7 pm (the lights were turned off at other time), and the mice were allowed to access to water and feed freely. The experimental feed was mouse growth-stable feed (GB M2118), and the daily feeding and management of the animals were under the responsibility of the animal security department, which provided the animals with sufficient padding and fresh drinking water daily.
Experimental grouping: male db/db mice (20±2 g) were selected, 18 male mice in each group were tested, and drinking bottles were sterilized weekly. The experimental groups included the normal control group (db/m, n=18), the model group (db/db, n=18), the nomilin group (db/db, n=18), the deacetylnomilin group (db/db, n=18), the nomilin acid group (db/db, n=18), the deactylnomilin 17-β-D-glucopyranoside group (db/db, n=18), the metformin group (db/db, n=18), the nomilin/metformin combination group (db/db, n=18), the deacetylnomilin/metformin combination group (db/db, n=18), the nomilin acid/metformin combination group (db/db, n=18), the deactylnomilin 17-β-D-glucopyranoside/combination group (db/db, n=18).
Gavage doses: nomilin at a dose of 0.2 g/kg was gavaged per day for the nomilin group, deacetylnomilin at a dose of 0.2 g/kg was gavaged per day for the deacetylnomilin group, nomilin acid at a dose of 0.2 g/kg was gavaged per day for the nomilin acid group, deacetylnomilin […] at a dose of 0.2 g/kg was gavaged per day for the deactylnomilin glucopyranoside group, metformin at a dose of 0.2 g/kg was gavaged per day for the metformin group, nomilin at a dose of 0.1 g/kg and metformin at a dose of 0.1 g/kg were simultaneously gavaged per day for the nomilin/metformin combination group, nomilin acid at a dose of 0.1 g/kg and metformin at a dose of 0.1 g/kg were simultaneously gavaged per day for the nomilin acid/metformin combination group, deacetylnomilin at a dose of 0.1 g/kg and metformin at a dose of 0.1 g/kg were simultaneously gavaged per day for the deacetylnomilin/metformin combination group, deactylnomilin 17-β-D-glucopyranoside at a dose of 0.1 g/kg and metformin at a dose of 0.1 g/kg were simultaneously gavaged per day for the deactylnomilin 17-β-D-glucopyranoside/metformin combination group, the gavage volume was 10 mL/kg, and the normal group and the model group were administrated with 10 mL/kg of distilled water. Two weeks later, the blood glucose values were measured by tail trimming method (Johnson's blood glucose meter) 1 h after the last administration, and serum insulin levels were measured with blood collected from orbital cavity by enzyme-linked immunosorbent assay (Elisa), and the average of each group was obtained. SPSS 16.0 software was used for statistical analysis. The data were expressed as mean and standard deviation. The data before and after were analyzed by t-test, and P<0.05 was considered statistically significant.

Row | Molecule | Blood glucose value (STZ mice) [mmol/L] | Leptin (db/db mice [1]) [pg/mL] | Blood glucose value (db/db mice [1]) [mmol/L] | also measured
1 | isolimonic acid | 18.2 ± 3.1 | – | – | –
2 | obacunone 17-β-D-glucopynoside | – | 28.55 ± 4.00 | 13.67 ± 2.9 | –
3 | CC1(C)O[C@H]2CC(=O)OC[C@]23[C@H]2CC[C@@](C)([C@@H](O[C@@H]4O[C@H](CO)[C@@H](O)[C@H](O)[C@H]4O)c4ccoc4)[C@@]4(O[C@@H]4C(=O)O)[C@]2(C)C(=O)C[C@@H]13 [Limonin 17-β-D-glucopyranoside, limonin 17-β-D-glucopyranoside] | 18.9 ± 2.2 | – | – | –
4 | isolimonic acid 17-β-D-glucopyranoside | 17.9 ± 2.8 | – | – | –
5 | CC1(C)OC(=O)C=C[C@]2(C)[C@H]3CC[C@@]4(C)[C@H](c5ccoc5)OC(=O)[C@H]5O[C@]54[C@]3(C)C(=O)C[C@@H]12 [Obacunone, obacunone] | – | 25.99 ± 3.92 | 12.71 ± 2.8 | –
6 | CC1(C)O[C@@H](CC(=O)O)[C@]2(C)[C@H]3CC[C@@]4(C)[C@H](c5ccoc5)OC(=O)[C@H]5O[C@]54[C@]3(C)C(=O)C[C@@H]12 [Isoobacunoic acid, isoobacunoic acid] | – | 27.68 ± 3.25 | 14.66 ± 3.1 | –
7 | CC(=O)O[C@H]1CC(=O)OC(C)(C)[C@@H]2CC(=O)[C@]3(C)[C@H](CC[C@@]4(C)[C@H](c5ccoc5)OC(=O)[C@H]5O[C@]543)[C@@]12C [Nomilin, nomilin] | – | – | – | Body weight gaining rate (ICR mice): 6.17%; Total cholesterol (ICR mice; serum): 3.09 ± 0.16 mmol/L; Triglycerides (ICR mice; serum): 1.08 ± 0.33 mmol/L; Insulin (db/db mice [2]): 8.82 ± 3.42 pg/mL
8 | CC1(C)OC(=O)C[C@H](O)[C@]2(C)[C@H]3CC[C@@]4(C)[C@H](c5ccoc5)OC(=O)[C@H]5O[C@]54[C@]3(C)C(=O)C[C@@H]12 [deacetylnomilin] | – | – | – | Insulin (db/db mice [2]): 8.59 ± 2.61 pg/mL
9 | nomilin acid | – | – | – | Blood glucose value (db/db mice [2]; 1 h after last administration): 11.0 ± 4.1 mmol/L
10 | CC1(C)O[C@H]2CC(=O)OC[C@]23[C@H]2CC[C@@]4(C)[C@H](c5ccoc5)OC(=O)[C@H]5O[C@]54[C@]2(C)C(=O)C[C@@H]13 [Limonin, limonin] | 19.5 ± 1.8 | – | – | –

Source: patent publication US11679097B2, “Combination product containing limonoid compound and biguanide compound” (ZHEJIANG YANGSHENGTANG INSTITUTE OF NATURAL MEDICATION CO., …, priority 2017, dated 2023)
